From US20080221086A1, “Novel Inhibitors of Glutaminyl Cyclase” (PROBIODRUG AG, priority 2006, published 2008)
Where two headings read alike, the source gives them in different places.

Biological target: hQC (Homo sapiens, UniProt Q16769)
Assay: Fluorometric assay of glutaminyl cyclase (QC) inhibition, H-Gln-βNA or H-Gln-AMC substrate
Format: biochemical
How it was run: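 Fluorometric coupled assays at 30° C in Tris/HCl pH 8.0 with EDTA and pyroglutamyl aminopeptidase used either 0.2 mM H-Gln-βNA (320/410 nm) or H-Gln-AMC (380/460 nm), started by QC. Screening used 4 mM inhibitor at substrate 1 KM. Ki came from fitting progress curves to competitive inhibition.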

Chain of hQC (Q16769 29-361): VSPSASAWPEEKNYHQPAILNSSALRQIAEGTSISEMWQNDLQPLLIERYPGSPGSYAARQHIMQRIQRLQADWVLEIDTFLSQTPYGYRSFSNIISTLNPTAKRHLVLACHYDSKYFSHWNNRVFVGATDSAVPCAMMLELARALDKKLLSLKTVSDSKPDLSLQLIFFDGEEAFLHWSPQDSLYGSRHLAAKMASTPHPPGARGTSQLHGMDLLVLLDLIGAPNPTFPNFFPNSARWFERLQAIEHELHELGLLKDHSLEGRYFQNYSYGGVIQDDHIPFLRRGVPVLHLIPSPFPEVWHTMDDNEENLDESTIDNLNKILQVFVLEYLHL

| SMILES | IC50 (read-out: IC50) [µM] | IC50 (compound from preparative synthesis, purified by chromatography, fluorescent assay, read-out: IC50 hQC) [µM] |
| --- | --- | --- |
| Cc1ccc(C2/C(=N/C(C)(C)CC(C)(C)C)NC(=O)N2c2ccc3nc[nH]c3c2)c(C)c1 (stereo not shown) [Compound 262, 1-(3H-Benzoimidazol-5-yl)-5-(2,4-dimethyl-phenyl)-4-1,1,3,3-tetramethyl-butylimino-imidazolidin-2-one] | 1.3 |  |
| O=C1N/C(=N\C2CCCC2)C(c2ccc(Cl)cc2)N1c1ccc2[nH]cnc2c1 (stereo not shown) [Compound 211, 1-(1H-Benzoimidazol-5-yl)-5-(4-chloro-phenyl)-4-cyclopentylimino-imidazolidin-2-one] | 0.004 | 0.0377 |
| O=C1N/C(=N/CCc2c[nH]c3ccccc23)C(CO)N1CCCn1ccnc1 (stereo not shown) [Compound 56, 5-Hydroxymethyl-1-(3-imidazol-1-yl-propyl)-4-2-(1H-indol-3-yl)-ethylimino-imidazolidin-2-one] | 8.5 |  |
| O=C1CCCN1CCC/N=C1/NC(=O)N(c2ccc3nc[nH]c3c2)C1c1ccc(Br)cc1 (stereo not shown) [Compound 321, 1-(3H-Benzoimidazol-5-yl)-5-(4-bromo-phenyl)-4-3-(2-oxo-pyrrolidin-1-yl)-propylimino-imidazolidin-2-one] | 0.004 |  |
| COC(=O)C(C)N=C1NC(=O)N(c2ccc3[nH]cnc3c2)C1c1c(F)cc(Cl)cc1F (stereo not shown) [Compound 290, Methyl 2-(1-(1H-benzo[d]imidazol-5-yl)-5-(4-chloro-2,6-difluorophenyl)-2-oxoimidazolidin-4-ylideneamino)propanoate] | 0.4 |  |
| O=C(C/N=C1/NC(=O)N(CCCn2ccnc2)C1c1ccc(Cl)c(F)c1)N1CCc2ccccc2C1 (stereo not shown) [Compound 70, 5-(4-Chloro-3-fluoro-phenyl)-4-2-(3,4-dihydro-1H-isoquinolin-2-yl)-2-oxo-ethylimino-1-(3-imidazol-1-yl-propyl)-imidazolidin-2-one] | 3.1 |  |
| CCCCC1/C(=N\C2CCCCC2)NC(=O)N1CCCn1ccnc1 (stereo not shown) [Compound 7, 5-Butyl-4-cyclohexylimino-1-(3-imidazol-1-yl-propyl)-imidazolidin-2-one] | 9.1 |  |
| O=C1N/C(=N/Cc2cccnc2)C(c2cccc(F)c2)N1CCCn1ccnc1 (stereo not shown) [Compound 91, 5-(3-Fluoro-phenyl)-1-(3-imidazol-1-yl-propyl)-4-pyridin-3-ylmethylimino-imidazolidin-2-one] | 8.5 |  |
| CC1/C(=N\CCc2c[nH]c3ccccc23)NC(=O)N1CCCn1ccnc1 (stereo not shown) [Compound 48, 1-(3-Imidazol-1-yl-propyl)-4-2-(1H-indol-3-yl)-ethylimino-5-methyl-imidazolidin-2-one] | 7.6 |  |
| Cc1cccc(C2/C(=N/CCCN(C)C)NC(=O)N2c2ccc3[nH]cnc3c2)c1 (stereo not shown) [Compound 253, 4-(3-(Dimethylamino)propylimino)-1-(1H-benzo[d]imidazol-5-yl)-5-m-tolylimidazolidin-2-one] | 9.4 |  |
| CCC1/C(=N\CC(=O)N2CCc3ccccc3C2)NC(=O)N1CCCn1ccnc1 (stereo not shown) [Compound 75, 4-2-(3,4-Dihydro-1H-isoquinolin-2-yl)-2-oxo-ethylimino-5-ethyl-1-(3-imidazol-1-yl-propyl)-imidazolidin-2-one] | 7.6 |  |
| CCCCC1C(=NC(C)c2ccccc2)NC(=O)N1CCCn1ccnc1 (stereo not shown) [Compound 11, 5-Butyl-1-(3-imidazol-1-yl-propyl)-4-1-phenyl-ethylimino-imidazolidin-2-one] | 8.7 |  |
| O=C1N/C(=N\C2CC2)C(c2ccccc2C(F)(F)F)N1c1ccc2[nH]cnc2c1 (stereo not shown) [Compound 158, 1-(1H-Benzoimidazol-5-yl)-4-cyclopropylimino-5-(2-trifluoromethyl-phenyl)-imidazolidin-2-one] | 4.9 |  |
| O=C1N/C(=N\C2CCCc3ccccc32)C(c2c(F)ccc(Cl)c2F)N1c1ccc2nc[nH]c2c1 (stereo not shown) [Compound 228, 1-(3H-Benzoimidazol-5-yl)-5-(3-chloro-2,6-difluoro-phenyl)-4-1,2,3,4-tetrahydro-naphthalen-1-ylimino-imidazolidin-2-one] | 0.004 |  |
| O=C1N/C(=N/CCC(c2ccccc2)c2ccccc2)C(CO)N1CCCn1ccnc1 (stereo not shown) [Compound 111, 4-3,3-Diphenyl-propylimino-5-hydroxymethyl-1-(3-imidazol-1-yl-propyl)-imidazolidin-2-one] | 9.4 |  |
| COCC/N=C1/NC(=O)N(c2ccc3[nH]cnc3c2)C1c1ccc(C)cc1 (stereo not shown) [Compound 308, 1-(1H-Benzoimidazol-5-yl)-4-2-methoxy-ethylimino-5-p-tolyl-imidazolidin-2-one] | 1.3 |  |
| O=C1N/C(=N\Cc2ccccc2)C(c2ccccc2F)N1CCCn1ccnc1 (stereo not shown) [Compound 98, 4-Benzylimino-5-(2-fluoro-phenyl)-1-(3-imidazol-1-yl-propyl)-imidazolidin-2-one] | 5.8 |  |
| Cc1cccc(C2/C(=N\Cn3nnc4ccccc43)NC(=S)N2c2ccc3nc[nH]c3c2)n1 (stereo not shown) [Compound 277, 1-(3H-Benzoimidazol-5-yl)-4-benzotriazol-1-ylmethylimino-5-(6-methyl-pyridin-2-yl)-imidazolidine-2-thione] | 4 |  |

| SMILES | IC50 (read-out: IC50) [µM] | IC50 (compound from preparative synthesis, purified by chromatography, fluorescent assay, read-out: IC50 hQC) [µM] |
| --- | --- | --- |
| O=C(CN=C1NC(=O)N(c2ccc3[nH]cnc3c2)C1c1ccc2[nH]ccc2c1)N1CCC(O)C1 (stereo not shown) [Compound 222, 1-(1H-Benzoimidazol-5-yl)-4-2-(3-hydroxy-pyrrolidin-1-yl)-2-oxo-ethylimino-5-(1H-indol-5-yl)-imidazolidin-2-one] | 1.3 |  |
| O=C1N/C(=N\C2CCCCC2O)C(c2ccc3nsnc3c2)N1c1ccc2[nH]cnc2c1 (stereo not shown) [Compound 238] | 0.004 |  |
| CC1=CC(C)C(C2/C(=N/c3ccc4c(c3)OCCO4)NC(=S)N2c2ccc3[nH]cnc3c2)CC1 (stereo not shown) [Compound 330, 1-(1H-Benzoimidazol-5-yl)-4-2,3-dihydro-benzo1,4dioxin-6-ylimino-5-(2,4-dimethyl-cyclohex-3-enyl)-imidazolidine-2-thione] | 9.4 |  |
| O=C(C/N=C1/NC(=O)N(CCCn2ccnc2)C1CO)N1CCc2ccccc2C1 (stereo not shown) [Compound 72, 4-2-(3,4-Dihydro-1H-isoquinolin-2-yl)-2-oxo-ethylimino-5-hydroxymethyl-1-(3-imidazol-1-yl-propyl)-imidazolidin-2-one] | 8.5 |  |
| Cc1ccc2c(C3/C(=N\CCCc4ccccc4)NC(=O)N3c3ccc4[nH]cnc4c3)c[nH]c2c1 (stereo not shown) [Compound 120, 1-(1H-Benzoimidazol-5-yl)-5-(6-methyl-1H-indol-3-yl)-4-3-phenyl-propylimino-imidazolidin-2-one] | 1.3 |  |
| COC(=O)C(C)N=C1NC(=S)N(c2ccc3[nH]cnc3c2)C1c1ccccc1 (stereo not shown) [Compound 304, Methyl 2-(1-(1H-benzo[d]imidazol-5-yl)-5-phenyl-2-thioxoimidazolidin-4-ylideneamino)propanoate] | 7.6 |  |
| O=C1CCCN1CCC/N=C1\NC(=O)N(c2ccc3[nH]cnc3c2)C1c1ccnc2ccccc12 (stereo not shown) [Compound 247, 1-(1H-Benzoimidazol-5-yl)-4-3-(2-oxo-pyrrolidin-1-yl)-propylimino-5-quinolin-4-yl-imidazolidin-2-one] | 3.1 |  |
| OC(CN=C1NC(=S)N(c2ccc3[nH]cnc3c2)C1c1cc(F)cc(F)c1)c1ccccc1 (stereo not shown) [Compound 229, 1-(1H-Benzoimidazol-5-yl)-5-(3,5-difluoro-phenyl)-4-2-hydroxy-2-phenyl-ethylimino-imidazolidine-2-thione] | 8.5 |  |
| Oc1cccc(C2/C(=N/c3cc(Cl)ccc3Cl)NC(=S)N2c2ccc3[nH]cnc3c2)c1 (stereo not shown) [Compound 214, 1-(1H-Benzoimidazol-5-yl)-4-2,5-dichloro-phenylimino-5-(3-hydroxy-phenyl)-imidazolidine-2-thione] | 7.6 |  |
| C/N=C1/NC(=O)N(c2ccc3[nH]cnc3c2)C1c1ccc2[nH]ccc2c1 (stereo not shown) [Compound 116, 1-(1H-Benzoimidazol-5-yl)-5-(1H-indol-5-yl)-4-methylimino-imidazolidin-2-one] | 0.004 |  |
| O=C(C/N=C1\NC(=S)N(c2ccc3[nH]cnc3c2)C1c1c(F)ccc(Cl)c1F)N1CCCC(O)C1 (stereo not shown) [Compound 134, 2-(1-(1H-benzo[d]imidazol-5-yl)-5-(3-chloro-2,6-difluorophenyl)-2-thioxoimidazolidin-4-ylideneamino)-1-(3-hydroxypiperidin-1-yl)ethanone] | 2.2 |  |
| O=C1N/C(=N/Cc2ccc3[nH]ccc3c2)C(c2cc(Br)cc(Br)c2)N1c1ccc2nc[nH]c2c1 (stereo not shown) [Compound 305, 1-(3H-Benzoimidazol-5-yl)-5-(3,5-dibromo-phenyl)-4-1H-indol-5-ylmethylimino-imidazolidin-2-one] | 0.004 |  |
| O=C1N/C(=N/CCCc2ccccc2)C(c2c[nH]c3cc(F)ccc23)N1c1ccc2[nH]cnc2c1 (stereo not shown) [Compound 232, 1-(1H-Benzoimidazol-5-yl)-5-(6-fluoro-1H-indol-3-yl)-4-3-phenyl-propylimino-imidazolidin-2-one] | 2.2 |  |
| S=C1N/C(=N/CCc2cccs2)C(c2cc3ccccc3s2)N1c1ccc2[nH]cnc2c1 (stereo not shown) [Compound 260, 5-Benzobthiophen-2-yl-1-(1H-benzoimidazol-5-yl)-4-2-thiophen-2-yl-ethylimino-imidazolidine-2-thione] | 3.1 |  |
| O=C1N/C(=N\CCC(c2ccccc2)c2ccccc2)C(c2ccccc2F)N1CCCn1ccnc1 (stereo not shown) [Compound 112, 4-3,3-Diphenyl-propylimino-5-(2-fluoro-phenyl)-1-(3-imidazol-1-yl-propyl)-imidazolidin-2-one] | 6.7 |  |
| O=C1N/C(=N\C(c2ccccc2)c2ccccc2)C(c2cccc(F)c2F)N1CCCn1ccnc1 (stereo not shown) [Compound 83, 4-Benzhydrylimino-5-(2,3-difluoro-phenyl)-1-(3-imidazol-1-yl-propyl)-imidazolidin-2-one] | 7.6 |  |
| O=C1N/C(=N\CCCc2ccccc2)C(c2coc3ccccc3c2=O)N1c1ccc2[nH]cnc2c1 (stereo not shown) [Compound 209, 1-(1H-Benzoimidazol-5-yl)-5-(4-oxo-4H-chromen-3-yl)-4-3-phenyl-propylimino-imidazolidin-2-one] | 1.3 |  |
| O=C(C/N=C1/NC(=O)N(c2ccc3[nH]cnc3c2)C1c1ccc(Cl)cc1)N1CCC(O)C1 (stereo not shown) [Compound 340, 1-(1H-Benzoimidazol-5-yl)-5-(4-chloro-phenyl)-4-2-(3-hydroxy-pyrrolidin-1-yl)-2-oxo-ethylimino-imidazolidin-2-one] | 4 |  |
